Among the data in patent US20140213538A1, “LYSOPHOSPHATIDIC ACID RECEPTOR ANTAGONISTS” (InterMune, Inc., priority 2013, published 2014) are EC50 values, retold here.

Bounds are passed on as bounds.

The target in the experiment is T1, LPA/S1P GPCR of interest (Homo sapiens, UniProt Q92633).
T1 construct: host or cells: CHO
Put plainly: Beta-Arrestin based assay (PathHunter). It is filed as cell-based. As to the method:
CMV promoter based DNA constructs expressing a fusion of the LPA/S1P GPCR of interest and ProLink™ tag were used to transfect EA Parental™ CHO cells (DiscoverX, Fremont, Calif.) using a FuGENE® transfection kit (Roche). Beta-Arrestin based assays were conducted 24-48 hrs post transfection using PathHunter® assay kits (DiscoverX, Fremont, Calif.). Agonist and antagonist assays were performed in quadruplicate in white 384 well plates. End point luminescence data were plotted and fit to a 4 parameter logistic function to obtain IC50 values. For antagonist assays, an IC80 concentration of agonist (LPA) equal to 0.5 micromolar was used.

T1 sequence (Q92633 whole entry): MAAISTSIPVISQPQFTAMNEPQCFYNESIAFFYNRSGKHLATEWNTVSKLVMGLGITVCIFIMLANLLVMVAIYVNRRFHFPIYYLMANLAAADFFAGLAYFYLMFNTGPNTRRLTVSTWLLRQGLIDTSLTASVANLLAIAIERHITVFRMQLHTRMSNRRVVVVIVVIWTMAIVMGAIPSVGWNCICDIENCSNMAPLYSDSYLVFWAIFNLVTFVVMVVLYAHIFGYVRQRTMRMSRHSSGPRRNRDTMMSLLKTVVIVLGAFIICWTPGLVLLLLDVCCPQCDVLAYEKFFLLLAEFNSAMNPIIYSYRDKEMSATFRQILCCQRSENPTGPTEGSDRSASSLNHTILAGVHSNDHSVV

Turning to `Cc1noc(-c2ccc(-c3ccc(OC(C)C(=O)O)cc3)cc2)c1NC(=O)O[C@H](C)c1ccccc1` (single isomer, unassigned) [IT238], the EC50 (usually the concentration giving half of the maximal effect) was 50 to 500 nM.

Compound `Cc1noc(-c2ccc(-c3ccc(OC(C)C(=O)O)cc3)cc2)c1NC(=O)O[C@H](C)c1ccccc1` (single isomer, unassigned) [IT256] gave an EC50 of under 50 nM.

Compound `C[C@@H](NC(=O)Nc1c(C#Cc2cc3sc(C4(C(=O)O)CC4)cc3s2)cnn1C)c1ccccc1` [IT109] yielded an EC50 of under 50 nM.

As for `Cn1ncc(C#Cc2cc3sc(C4(C(=O)O)CC4)cc3s2)c1N` [IT113], the EC50 is over 500 nM.

Turning to `C[C@@H](OC(=O)Nc1scnc1C#Cc1cc2sc(C3(C(=O)O)CC3)cc2s1)c1ccccc1` [IT116], the half-maximal effective concentration (EC50) is over 500 nM.

As for `C[C@@H](OC(=O)Nc1[nH]ncc1C#Cc1cc2sc(C3(C(=O)O)CC3)cc2s1)c1ccccc1` [IT127], the EC50 was over 500 nM.

`C[C@@H](OC(=O)Nc1c(-c2ccc(-c3nnc(CC(=O)O)o3)cc2)nnn1C)c1ccccc1` [IT143] gave a 50% effective concentration (EC50) of over 500 nM.

Compound `Cc1nsc(-c2ccc(-c3ccc(C(=O)O)s3)cc2)c1NC(=O)O[C@H](C)c1ccccc1` [IT144] registered an EC50 of over 500 nM.

The compound `Cc1noc(-c2ccc(NC(=O)c3csc(C4(C(=O)O)CC4)n3)cc2)c1NC(=O)O[C@H](C)c1ccccc1` [IT152] had an EC50 of over 500 nM.

In turn, `Cc1nsc(-c2cc3sc(-c4ccc(CC(=O)O)cc4Cl)cc3s2)c1NC(=O)O[C@H](C)c1ccccc1` [IT161] registered an EC50 of over 500 nM.

`COc1cc(CC(=O)O)ccc1-c1cc2sc(-c3snc(C)c3NC(=O)O[C@H](C)c3ccccc3)cc2s1` [IT163]: the EC50 is over 500 nM.

Compound `C[C@@H](OC(=O)Nc1c(-c2ccc(-c3nnc(C4(C(=O)O)CC4)o3)cc2)nnn1C)c1ccccc1` [IT175] showed an EC50 of over 500 nM.

Compound `Cc1nsc(-c2ccc(-c3nnc(C4(C(=O)O)CC4)o3)cc2)c1NC(=O)O[C@H](C)c1ccccc1` [IT176] came in with an EC50 of over 500 nM.

In turn, `Cc1nsc(-c2ccc(-c3ncc(C(=O)O)s3)cc2)c1NC(=O)O[C@H](C)c1ccccc1` [IT177] came in with an EC50 of over 500 nM.

The compound `Cc1nsc(-c2ccc(-c3nnc(C4(C(=O)O)CC4)s3)cc2)c1NC(=O)O[C@H](C)c1ccccc1` [IT200] registered a half-maximal effective concentration (EC50) of over 500 nM.

For `Cc1nsc(-c2ccc(-c3cnc(C4(C(=O)O)CC4)s3)cc2)c1NC(=O)O[C@H](C)c1ccccc1` [IT202], the EC50 is 50 to 500 nM.

`C[C@@H](OC(=O)Nc1c(-c2ccc(-c3ccc(C(=O)O)s3)cc2)nnn1C)c1ccccc1` [IT203] had an EC50 of over 500 nM.

Consider `Cc1nsc(-c2cc3sc(-c4ccc(CC(=O)O)c(C(F)(F)F)c4)cc3s2)c1NC(=O)O[C@H](C)c1ccccc1` [IT204], for which the EC50 is over 500 nM.

`Cc1nsc(-c2cc3sc(-c4cc(Cl)c(CC(=O)O)cc4F)cc3s2)c1NC(=O)O[C@H](C)c1ccccc1` [IT205] returned an EC50 of over 500 nM.

`C[C@@H](OC(=O)Nc1c(-c2cc3sc(-c4ccc(-c5nnc(CC(=O)O)o5)cc4)cc3s2)cnn1C)c1ccccc1` [IT206] returned an EC50 of over 500 nM.

Take `Cc1nsc(-c2cc3sc(-c4ccc(-c5nnc(CC(=O)O)o5)cc4)cc3s2)c1NC(=O)O[C@H](C)c1ccccc1` [IT207]: the EC50 was over 500 nM.

Compound `C[C@@H](OC(=O)Nc1c(-c2ccc(-c3nnc(C4(C(=O)O)CC4)s3)cc2)nnn1C)c1ccccc1` [IT208] registered an EC50 of over 500 nM.

In turn, `C[C@@H](OC(=O)Nc1c(-c2ccc(-c3ncc(C(=O)O)s3)cc2)nnn1C)c1ccccc1` [IT209] displayed an EC50 of over 500 nM.

`Cc1nsc(-c2ccc(-c3ncc(C4(C(=O)O)CC4)s3)cc2)c1NC(=O)O[C@H](C)c1ccccc1` [IT210] yielded an EC50 of over 500 nM.

As for `C[C@@H](OC(=O)Nc1c(-c2cc3sc(-c4ccc(CC(=O)O)c(F)c4F)cc3s2)cnn1C)c1ccccc1` [IT211], the EC50 fell in the range of 50 to 500 nM.

Compound `Cc1nsc(-c2cc3sc(-c4ccc(-c5nnc(CC(=O)O)s5)cc4)cc3s2)c1NC(=O)O[C@H](C)c1ccccc1` [IT213] showed an EC50 of over 500 nM.

In the case of `C[C@@H](OC(=O)Nc1c(-c2cc3sc(-c4ccc(CC(=O)O)nc4)cc3s2)cnn1C)c1ccccc1` [IT214], the 50% effective concentration (EC50) is 50 to 500 nM.

`C[C@@H](OC(=O)Nc1c(-c2cc3sc(-c4ccc(CC(=O)O)nc4)cc3s2)nnn1C)c1ccccc1` [IT215] returned an EC50 of 50 to 500 nM.

The compound `Cc1nsc(-c2cc3sc(-c4ccc(-c5nnc(C6(C(=O)O)CC6)o5)cc4)cc3s2)c1NC(=O)O[C@H](C)c1ccccc1` [IT216] registered an EC50 of over 500 nM.

Compound `C[C@@H](OC(=O)Nc1c(-c2cc3sc(-c4ccc(-c5nnc(C6(C(=O)O)CC6)o5)cc4)cc3s2)cnn1C)c1ccccc1` [IT217] returned an EC50 of over 500 nM.

In turn, `C[C@@H](OC(=O)Nc1c(-c2cc3sc(-c4ccc(-c5nnc(C6(C(=O)O)CC6)o5)cc4)cc3s2)nnn1C)c1ccccc1` [IT218] gave an EC50 of over 500 nM.

For the compound `COc1cc(-c2cc3sc(-c4snc(C)c4NC(=O)O[C@H](C)c4ccccc4)cc3s2)ccc1CC(=O)O` [IT219], the EC50 is over 500 nM.

Turning to `COc1cc(-c2cc3sc(-c4nnn(C)c4NC(=O)O[C@H](C)c4ccccc4)cc3s2)ccc1CC(=O)O` [IT220], the EC50 lay within 50 to 500 nM.

`COc1cc(-c2cc3sc(-c4cnn(C)c4NC(=O)O[C@H](C)c4ccccc4)cc3s2)ccc1CC(=O)O` [IT221] showed an EC50 of 50 to 500 nM.

Compound `C[C@@H](OC(=O)Nc1c(-c2cc3sc(-c4ccc(CC(=O)O)c(C(F)(F)F)c4)cc3s2)cnn1C)c1ccccc1` [IT222] registered a 50% effective concentration (EC50) of 50 to 500 nM.

Compound `C[C@@H](OC(=O)Nc1c(-c2cc3sc(-c4ccc(CC(=O)O)c(C(F)(F)F)c4)cc3s2)nnn1C)c1ccccc1` [IT223] yielded a half-maximal effective concentration (EC50) of 50 to 500 nM.

For the compound `Cc1nsc(-c2ccc3c(c2)CCCc2cc(CC(=O)O)ccc2-3)c1NC(=O)O[C@H](C)c1ccccc1` [IT225], the EC50 fell in the range of 50 to 500 nM.

Regarding `Cc1nsc(-c2ccc(-c3ccc(C4(C(=O)O)CC4)s3)cc2)c1NC(=O)O[C@H](C)c1ccccc1` [IT237], the EC50 lay in the range of 50 to 500 nM.

`C[C@@H](OC(=O)Nc1c(-c2ccc(-c3ncc(C4(C(=O)O)CC4)s3)cc2)nnn1C)c1ccccc1` [IT239] yielded an EC50 of over 500 nM.

As for `Cc1cc(-c2cc3sc(-c4snc(C)c4NC(=O)O[C@H](C)c4ccccc4)cc3s2)c(F)cc1CC(=O)O` [IT241], the EC50 is over 500 nM.

Turning to `Cc1cc(-c2cc3sc(-c4nnn(C)c4NC(=O)O[C@H](C)c4ccccc4)cc3s2)c(F)cc1CC(=O)O` [IT242], the EC50 was over 500 nM.

In the case of `Cc1cc(-c2cc3sc(-c4cnn(C)c4NC(=O)O[C@H](C)c4ccccc4)cc3s2)c(F)cc1CC(=O)O` [IT243], the EC50 is over 500 nM.

Turning to `Cc1nsc(-c2cc3sc(-c4ccc(C5(C(=O)O)CC5)cc4F)cc3s2)c1NC(=O)O[C@H](C)c1ccccc1` [IT244], the EC50 is under 50 nM.

The compound `C[C@@H](OC(=O)Nc1c(-c2cc3sc(-c4ccc(C5(C(=O)O)CC5)cc4C(F)(F)F)cc3s2)cnn1C)c1ccccc1` [IT247] gave an EC50 of 50 to 500 nM.

As for `Cc1nsc(-c2cc3sc(-c4ccc(C5(C(=O)O)CC5)cc4C(F)(F)F)cc3s2)c1NC(=O)O[C@H](C)c1ccccc1` [IT248], the EC50 was over 500 nM.

`C[C@@H](OC(=O)Nc1c(-c2cc3sc(-c4cnc(C5(C(=O)O)CC5)s4)cc3s2)cnn1C)c1ccccc1` [IT249] came in with an EC50 of 50 to 500 nM.

Regarding `Cc1cc(-c2cc3sc(-c4nnn(C)c4NC(=O)O[C@H](C)c4ccccc4)cc3s2)ccc1CC(=O)O` [IT250], the EC50 is 50 to 500 nM.

`Cc1cc(CC(=O)O)c(F)cc1-c1cc2sc(-c3cnn(C)c3NC(=O)O[C@H](C)c3ccccc3)cc2s1` [IT251] displayed an EC50 of 50 to 500 nM.

For the compound `Cc1cc(CC(=O)O)c(F)cc1-c1cc2sc(-c3snc(C)c3NC(=O)O[C@H](C)c3ccccc3)cc2s1` [IT252], the EC50 is over 500 nM.

`Cc1cc(CC(=O)O)c(F)cc1-c1cc2sc(-c3nnn(C)c3NC(=O)O[C@H](C)c3ccccc3)cc2s1` [IT253] showed an EC50 of 50 to 500 nM.

The compound `Cc1cc(-c2cc3sc(-c4cnn(C)c4NC(=O)O[C@H](C)c4ccccc4)cc3s2)ccc1CC(=O)O` [IT254] came in with an EC50 of 50 to 500 nM.

The compound `COc1cc(C2(C(=O)O)CC2)ccc1-c1cc2sc(-c3cnn(C)c3NC(=O)O[C@H](C)c3ccccc3)cc2s1` [IT264] gave an EC50 of 50 to 500 nM.

`Cc1nsc(-c2cc3sc(-c4ccc(CC(=O)O)c(F)c4F)cc3s2)c1NC(=O)O[C@H](C)c1ccccc1` [IT265] gave an EC50 of 50 to 500 nM.

`Cc1nsc(-c2cc3sc(-c4ccc(C5(C(=O)O)CC5)c(Cl)c4)cc3s2)c1NC(=O)O[C@H](C)c1ccccc1` [IT267] came in with an EC50 of 50 to 500 nM.

In the case of `C[C@@H](OC(=O)Nc1c(-c2cc3sc(-c4ccc5occ(CC(=O)O)c5c4)cc3s2)nnn1C)c1ccccc1` [IT268], the EC50 lay in the range of 50 to 500 nM.

Turning to `C[C@@H](OC(=O)Nc1c(-c2cc3sc(-c4ccc(C5(C(=O)O)CC5)nc4)cc3s2)cnn1C)c1ccccc1` [IT269], the EC50 lay within 50 to 500 nM.

Turning to `Cc1nsc(-c2cc3sc(-c4ccc(C5(C(=O)O)CC5)nc4)cc3s2)c1NC(=O)O[C@H](C)c1ccccc1` [IT271], the EC50 is 50 to 500 nM.

In the case of `C[C@@H](OC(=O)Nc1c(-c2cc3sc(-c4ccc(C5(C(=O)O)CC5)s4)cc3s2)cnn1C)c1ccccc1` [IT272], the EC50 was 50 to 500 nM.

For `C[C@@H](OC(=O)Nc1c(-c2cc3sc(-c4ccc(C5(C(=O)O)CC5)s4)cc3s2)nnn1C)c1ccccc1` [IT273], the EC50 was in the range of 50 to 500 nM.

For `Cc1nsc(-c2cc3sc(-c4ccc(C5(C(=O)O)CC5)s4)cc3s2)c1NC(=O)O[C@H](C)c1ccccc1` [IT274], the EC50 fell in the range of 50 to 500 nM.

`COc1cc(-c2cc3sc(-c4cnn(C)c4NC(=O)O[C@H](C)c4ccccc4)cc3s2)cnc1C1(C(=O)O)CC1` [IT275]: the half-maximal effective concentration (EC50) lay in the range of 50 to 500 nM.

`Cc1nsc(-c2cc3sc(C4CCC(C(=O)O)C4)cc3s2)c1NC(=O)O[C@H](C)c1ccccc1` (stereo partly drawn) [IT276] yielded an EC50 of over 500 nM.

For `Cc1noc(-c2ccc(-c3ccc(OCC(=O)O)cc3)cc2)c1NC(=O)O[C@H](C)c1ccccc1` [IT277], the EC50 fell in the range of 50 to 500 nM.
